Test results: patent US20110166112A1, “METHOD FOR STIMULATING PLATELET PRODUCTION” (Eisai, Inc., priority 2009, published 2011)

Test system: subjects with chronic ITP
Test: Combined 28-day and 6-month rollover studies of E5501: safety (TEAEs, serious TEAEs, thromboembolic events, neoplasms, liver toxicity, discontinuations)
Assay type: in vivo, human
Text: Primary Endpoint: The primary endpoint was to assess the safety and tolerability to E5501, including AEs and clinical laboratory parameters, over the 6 additional months of treatment.
In this way, safety data reflect each subject's complete duration of exposure to E5501 starting with lead-in the previous study and continuing into the current study.
Following Protocol Amendment 4, the current study contained a flexible dose regimen; therefore, this study was considered to have an open-label, uncontrolled, single-arm design. […] This was the method used to assess safety. • Grouping method B was based on both treatment received and day 28 platelet response to study drug in Study the previous study. This was the method used for the analysis of efficacy for the FAS and the SE population.
Overall Adverse Events. […] The primary focus is on summary statistics for the entire safety population and provides an overall safety profile for E5501. The summary statistics for each group, e.g., lower ⅓, middle ⅓ and upper ⅓ average daily dose levels, is secondary and provides further safety information across the 3 dose levels.

[1] = Middle ⅓ dose (≧8.85-<13.5 mg), N=22
[2] = Safety Population, Middle ⅓ Mean Daily Dose Level (≧8.85-<13.5 mg)
[3] = Upper ⅓ dose (≧13.5-≦25.7 mg), N=20

O=C(Nc1nc(-c2cc(Cl)cs2)c(N2CCN(C3CCCCC3)CC2)s1)c1cnc(N2CCC(C(=O)O)CC2)c(Cl)c1 [E5501, 1-(3-chloro-5-{[4-(4-chlorothiophen-2-yl)-5-(4-cyclohexylpiperazin-1-yl)thiazol-2-yl]carbamoyl}pyridine-2-yl)piperidine-4-carboxylic acid]
Vomiting, % of subjects [1]: (9.1) % | Vomiting, n of subjects [1]: 2 | Withdrawal due to TEAE, % of subjects [1]: (9.1) % | Withdrawal due to TEAE, n of subjects [1]: 2 | Discontinuation in 501-CL-003, PC increase to ≧500,000/mm^3 (Safety Population, Lower ⅓ Mean Daily Dose Level (2.5-<8.85 mg)): 0 n | Discontinuation in 501-CL-003, PC increase to ≧500,000/mm^3 [2]: 0 n | Discontinuation in 501-CL-004, PC increase to ≧500,000/mm^3 [2]: 0 n | Discontinuation in 501-CL-003, Adverse Event or SAE (Safety Population, Upper ⅓ Mean Daily Dose Level (≧13.5-≦25.7 mg)): 0 n | Abdominal pain upper, % of subjects (Total E5501, N=64): (4.7) % | Abdominal pain upper, n of subjects (Total E5501, N=64): 3 | Any TEAE, % of subjects (Total E5501, N=64): (96.9) % | Any TEAE, n of subjects (Total E5501, N=64): 62 | Arthralgia, % of subjects (Total E5501, N=64): (14.1) % | Arthralgia, n of subjects (Total E5501, N=64): 9 | Asthenia, % of subjects (Total E5501, N=64): (6.3) % | Asthenia, n of subjects (Total E5501, N=64): 4 | Back pain, % of subjects (Total E5501, N=64): (9.4) % | Back pain, n of subjects (Total E5501, N=64): 6 | Constipation, % of subjects (Total E5501, N=64): (4.7) % | Constipation, n of subjects (Total E5501, N=64): 3 | Contusion, % of subjects (Total E5501, N=64): (18.8) % | Contusion, n of subjects (Total E5501, N=64): 12 | Cough, % of subjects (Total E5501, N=64): (4.7) % | Cough, n of subjects (Total E5501, N=64): 3 | Deaths, n of subjects (Total E5501, N=64): 0 | Diarrhoea, % of subjects (Total E5501, N=64): (14.1) % | Diarrhoea, n of subjects (Total E5501, N=64): 9 | Dizziness, % of subjects (Total E5501, N=64): (7.8) % | Dizziness, n of subjects (Total E5501, N=64): 5 | Dose interruption due to TEAE, % of subjects (Total E5501, N=64): (12.5) % | Dose interruption due to TEAE, n of subjects (Total E5501, N=64): 8 | Dyspnoea, % of subjects (Total E5501, N=64): (9.4) % | Dyspnoea, n of subjects (Total E5501, N=64): 6 | Ecchymosis, % of subjects (Total E5501, N=64): (6.3) % | Ecchymosis, n of subjects (Total E5501, N=64): 4 | Epistaxis, % of subjects (Total E5501, N=64): (23.4) % | Epistaxis, n of subjects (Total E5501, N=64): 15 | Fatigue, % of subjects (Total E5501, N=64): (34.4) % | Fatigue, n of subjects (Total E5501, N=64): 22 | Gingival bleeding, % of subjects (Total E5501, N=64): (10.9) % | Gingival bleeding, n of subjects (Total E5501, N=64): 7 | Headache, % of subjects (Total E5501, N=64): (32.8) % | Headache, n of subjects (Total E5501, N=64): 21 | Insomnia, % of subjects (Total E5501, N=64): (7.8) % | Insomnia, n of subjects (Total E5501, N=64): 5 | Migraine, % of subjects (Total E5501, N=64): (4.7) % | Migraine, n of subjects (Total E5501, N=64): 3 | Mouth haemorrhage, % of subjects (Total E5501, N=64): (3.1) % | Mouth haemorrhage, n of subjects (Total E5501, N=64): 2 | Nausea, % of subjects (Total E5501, N=64): (9.4) % | Nausea, n of subjects (Total E5501, N=64): 6 | Pain in extremity, % of subjects (Total E5501, N=64): (9.4) % | Pain in extremity, n of subjects (Total E5501, N=64): 6 | Petechiae, % of subjects (Total E5501, N=64): (9.4) % | Petechiae, n of subjects (Total E5501, N=64): 6 | Platelet count increased, % of subjects (Total E5501, N=64): (9.4) % | Platelet count increased, n of subjects (Total E5501, N=64): 6 | Serious TEAE, % of subjects (Total E5501, N=64): (7.8) % | Serious TEAE, n of subjects (Total E5501, N=64): 5 | Serious treatment-related TEAEs, % of subjects (Total E5501, N=64): (3.1) % | Serious treatment-related TEAEs, n of subjects (Total E5501, N=64): 2 | Severe (grade 3-4) TEAEs, % of subjects (Total E5501, N=64): (25.0) % | Severe (grade 3-4) TEAEs, n of subjects (Total E5501, N=64): 16 | Somnolence, % of subjects (Total E5501, N=64): (3.1) % | Somnolence, n of subjects (Total E5501, N=64): 2 | Suspected drug-related AEs, % of subjects (Total E5501, N=64): (64.1) % | Suspected drug-related AEs, n of subjects (Total E5501, N=64): 41 | Upper respiratory tract infection, % of subjects (Total E5501, N=64): (9.4) % | Upper respiratory tract infection, n of subjects (Total E5501, N=64): 6 | Vomiting, % of subjects (Total E5501, N=64): (10.0) % | Vomiting, n of subjects (Total E5501, N=64): 7 | Withdrawal due to TEAE, % of subjects (Total E5501, N=64): (10.9) % | Withdrawal due to TEAE, n of subjects (Total E5501, N=64): 7 | Abdominal pain upper, % of subjects [3]: (15.0) % | Abdominal pain upper, n of subjects [3]: 3 | Any Serious TEAE, n (%) of subjects [3]: 1 (5.0) n (%) | Any TEAE, % of subjects [3]: (100.0) % | Any TEAE, n of subjects [3]: 20 | Arthralgia, % of subjects [3]: (20.0) % | Arthralgia, n of subjects [3]: 4 | Asthenia, % of subjects [3]: (5.0) % | Asthenia, n of subjects [3]: 1 | Back pain, % of subjects [3]: (15.0) % | Back pain, n of subjects [3]: 3 | Constipation, n of subjects [3]: 0 | Contusion, % of subjects [3]: (30.0) % | Contusion, n of subjects [3]: 6 | Cough, % of subjects [3]: (10.0) % | Cough, n of subjects [3]: 2 | Deaths, n of subjects [3]: 0 | Diarrhoea, % of subjects [3]: (25.0) % | Diarrhoea, n of subjects [3]: 5 | Dizziness, % of subjects [3]: (15.0) % | Dizziness, n of subjects [3]: 3
